The target of the assay is T1, Recombinant (1-346) HPK1 (h) (Homo sapiens, UniProt Q92918).
T1 construct: Recombinant (1-346) HPK1 (h) is incubated with 8 mM MOPS pH 7.0
T1 sequence (Q92918 1-346): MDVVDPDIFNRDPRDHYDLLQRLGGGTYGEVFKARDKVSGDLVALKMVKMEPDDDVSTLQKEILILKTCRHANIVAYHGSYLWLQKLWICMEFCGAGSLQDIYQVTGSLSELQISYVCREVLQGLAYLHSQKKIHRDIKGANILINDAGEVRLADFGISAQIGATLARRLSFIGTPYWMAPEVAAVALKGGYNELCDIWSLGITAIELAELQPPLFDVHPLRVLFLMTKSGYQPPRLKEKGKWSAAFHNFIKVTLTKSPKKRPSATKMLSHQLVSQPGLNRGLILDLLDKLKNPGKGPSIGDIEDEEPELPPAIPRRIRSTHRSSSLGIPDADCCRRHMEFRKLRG
The experiment in a line: HPK1 human STE kinase enzymatic radiometric assay. It is filed as biochemical. The note with it: read-out: HPK1 IC50 nM Range. Summed up: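 Compounds in 3-fold, 9-point serial dilution; kinase (residues 1-346) phosphorylates myelin basic protein (0.33 mg/mL) using [gamma-33P]-ATP at pH 7.0 (MOPS, EDTA, Mg acetate) for 40 min, room temperature. Acid-quenched mixture filtered onto P30 mats; incorporated radioactivity read by scintillation counting.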
For the molecule `Nc1nc(F)c(-c2ccc(N3CCOCC3)c(CN3CCCCC3)c2)nc1-c1cc(F)c2c(c1)CCNC2=O` [Example I-187, 6-(3-amino-5-fluoro-6-(4-morpholino-3-(piperidin-1-ylmethyl)phenyl)pyrazin-2-yl)-8-fluoro-3,4-dihydroisoquinolin-1(2H)-one], the IC50 – broadly, the point on the concentration scale where inhibition reaches its midpoint – was 11 to 100 nM.

Turning to `CN(C)Cc1c(N2CCOCC2)ccc(-c2nc(-c3cc4c(cc3F)C(=O)NCC4)c(N)nc2F)c1F` [Example I-241, 6-(3-amino-6-(3-((dimethylamino)methyl)-2-fluoro-4-morpholinophenyl)-5-fluoropyrazin-2-yl)-7-fluoro-3,4-dihydroisoquinolin-1(2H)-one], the IC50 lay in the range of 11 to 100 nM.

Consider `CN(C)Cc1cc(-c2nc(-c3ccc4c(c3)CCNC4=O)c(N)nc2F)ccc1F` [Example I-272, 6-(3-amino-6-(3-((dimethylamino)methyl)-4-fluorophenyl)-5-fluoropyrazin-2-yl)-3,4-dihydroisoquinolin-1(2H)-one], for which the IC50 lay in the range of 11 to 100 nM.

`CCN(C)Cc1c(N2CCOCC2)ccc(-c2nc(-c3cc(F)c4c(c3)CCNC4=O)c(N)nc2F)c1F` [Example I-247, 6-(3-amino-6-(3-((ethyl(methyl)amino)methyl)-2-fluoro-4-morpholinophenyl)-5-fluoropyrazin-2-yl)-8-fluoro-3,4-dihydroisoquinolin-1(2H)-one]: the IC50 lay within 11 to 100 nM.

Consider `Nc1nc(F)c(-c2ccc(C3CCOCC3)c(CN3CCC3)c2)nc1-c1ccc2c(c1)CCNC2=O` [Example I-169, 6-(3-amino-6-(3-(azetidin-1-ylmethyl)-4-(tetrahydro-2H-pyran-4-yl)phenyl)-5-fluoropyrazin-2-yl)-3,4-dihydroisoquinolin-1(2H)-one], for which the IC50 is 0.1 to 10 nM.

Consider `COCCN(C)Cc1cc(-c2nc(-c3cc(F)c4c(c3)CCNC4=O)c(N)nc2F)ccc1C1CCOCC1` [Example I-176, 6-(3-amino-5-fluoro-6-(3-(((2-methoxyethyl)(methyl)amino)methyl)-4-(tetrahydro-2H-pyran-4-yl)phenyl)pyrazin-2-yl)-8-fluoro-3,4-dihydroisoquinolin-1(2H)-one], for which the IC50 fell in the range of 0.1 to 10 nM.

As for `CCN(C)Cc1cc(-c2nc(-c3ccc4c(=O)[nH]cc(C)c4c3)c(N)nc2F)cc(C)c1OC` [Example I-299, 6-(3-amino-6-(3-((ethyl(methyl)amino)methyl)-4-methoxy-5-methylphenyl)-5-fluoropyrazin-2-yl)-4-methylisoquinolin-1(2H)-one], the IC50 was 11 to 100 nM.

Regarding `Nc1nc(F)c(-c2ccc(N3CCN(CC4CC4)CC3)cc2)nc1-c1ccc2c(=O)[nH]cc(F)c2c1` [Example I-84, 6-(3-amino-6-(4-(4-(cyclopropylmethyl)piperazin-1-yl)phenyl)-5-fluoropyrazin-2-yl)-4-fluoroisoquinolin-1(2H)-one], the IC50 fell in the range of 0.1 to 10 nM.

On to `Cc1cc(-c2nc(-c3cc(F)c4c(c3)CCNC4=O)c(N)nc2F)ccc1C1CCOCC1` [Example I-221, 6-(3-amino-5-fluoro-6-(3-methyl-4-(tetrahydro-2H-pyran-4-yl)phenyl)pyrazin-2-yl)-8-fluoro-3,4-dihydroisoquinolin-1(2H)-one], for which the half-inhibitory concentration (IC50) was in the range of 0.1 to 10 nM.

Consider `C[C@H]1CN(c2ccc(-c3nc(-c4cc(F)c5c(c4)CCNC5=O)c(N)nc3F)cc2CN(C)C)CCO1` [Example I-213, (S)-6-(3-amino-6-(3-((dimethylamino)methyl)-4-(2-methylmorpholino)phenyl)-5-fluoropyrazin-2-yl)-8-fluoro-3,4-dihydroisoquinolin-1(2H)-one], for which the IC50 was in the range of 0.1 to 10 nM.

Regarding `Nc1nc(F)c(-c2ccc(N3CCN(C4CCC4)CC3)cc2)nc1-c1ccc2c(c1)CCNC2=O` [Example I-49, 6-(3-amino-6-(4-(4-cyclobutylpiperazin-1-yl)phenyl)-5-fluoropyrazin-2-yl)-3,4-dihydroisoquinolin-1(2H)-one], the IC50 was 0.1 to 10 nM.

Take `Nc1nc(F)c(-c2ccc(OC3CCOCC3)c(CN3CCC3)c2)nc1-c1cc(F)c2c(c1)CCNC2=O` [Example I-210, 6-(3-amino-6-(3-(azetidin-1-ylmethyl)-4-((tetrahydro-2H-pyran-4-yl)oxy)phenyl)-5-fluoropyrazin-2-yl)-8-fluoro-3,4-dihydroisoquinolin-1(2H)-one]: the IC50 lay in the range of 11 to 100 nM.

Regarding `CN(C)[C@@H]1CCOc2ccc(-c3nc(-c4ccc5c(c4)CCNC5=O)c(N)nc3F)cc21` [Example I-287, (R)-6-(3-amino-6-(4-(dimethylamino)chroman-6-yl)-5-fluoropyrazin-2-yl)-3,4-dihydroisoquinolin-1(2H)-one], the IC50 was in the range of 0.1 to 10 nM.

On to `Cc1[nH]c(=O)c2cc(F)c(-c3nc(-c4ccc(N5CCN(C(C)C)CC5)cc4)c(F)nc3N)cc2c1F` [Example I-168, 6-(3-amino-5-fluoro-6-(4-(4-isopropylpiperazin-1-yl)phenyl)pyrazin-2-yl)-4,7-difluoro-3-methylisoquinolin-1(2H)-one], for which the IC50 is 0.1 to 10 nM.

As for `Cc1c[nH]c(=O)c2ccc(-c3nc(-c4ccc(N5CCN(CCC(F)F)CC5)cc4)c(F)nc3N)cc12` [Example I-87, 6-(3-amino-6-(4-(4-(3,3-difluoropropyl)piperazin-1-yl)phenyl)-5-fluoropyrazin-2-yl)-4-methylisoquinolin-1(2H)-one], the IC50 was > 1000 nM.

As for `Cc1cc(-c2nc(-c3cc4c(cc3F)C(=O)NCC4)c(N)nc2F)ccc1C1CCOCC1` [Example I-222, 6-(3-amino-5-fluoro-6-(3-methyl-4-(tetrahydro-2H-pyran-4-yl)phenyl)pyrazin-2-yl)-7-fluoro-3,4-dihydroisoquinolin-1(2H)-one], the IC50 lay within 0.1 to 10 nM.

For `COC1CN(Cc2cc(-c3nc(-c4ccc5c(c4)CCNC5=O)c(N)nc3F)ccc2N2CCOCC2)C1` [Example I-188, 6-(3-amino-5-fluoro-6-(3-((3-methoxyazetidin-1-yl)methyl)-4-morpholinophenyl)pyrazin-2-yl)-3,4-dihydroisoquinolin-1(2H)-one], the IC50 fell in the range of 0.1 to 10 nM.

On to `CCN(C)Cc1cc(-c2nc(-c3ccc4c(c3)CCNC4=O)c(N)nc2F)cc(C)c1OC` [Example I-297, 6-(3-amino-6-(3-((ethyl(methyl)amino)methyl)-4-methoxy-5-methylphenyl)-5-fluoropyrazin-2-yl)-3,4-dihydroisoquinolin-1(2H)-one], for which the IC50 lay in the range of 11 to 100 nM.

As to `Cc1cc(-c2nc(-c3ccc4c(c3)CCNC4=O)c(N)nc2F)cc2c1CCN(C)C2` [Example I-294, 6-(3-amino-6-(2,5-dimethyl-1,2,3,4-tetrahydroisoquinolin-7-yl)-5-fluoropyrazin-2-yl)-3,4-dihydroisoquinolin-1(2H)-one], the IC50 lay within 0.1 to 10 nM.

For `Nc1nc(F)c(-c2ccc(N3CCOCC3)c(CN3CCCC3)c2)nc1-c1ccc2c(=O)[nH]ccc2c1` [Example I-114, 6-(3-amino-5-fluoro-6-(4-morpholino-3-(pyrrolidin-1-ylmethyl)phenyl)pyrazin-2-yl)isoquinolin-1(2H)-one], the IC50 is 0.1 to 10 nM.

Consider `CN(C)[C@@H]1COc2ccc(-c3nc(-c4cc(F)c5c(c4)CCNC5=O)c(N)nc3F)cc21` [Example I-254, (S)-6-(3-amino-6-(3-(dimethylamino)-2,3-dihydrobenzofuran-5-yl)-5-fluoropyrazin-2-yl)-8-fluoro-3,4-dihydroisoquinolin-1(2H)-one], for which the half-inhibitory concentration (IC50) was 11 to 100 nM.

Consider `Cc1c[nH]c(=O)c2ccc(-c3nc(-c4cnc(N5CCOCC5)c(CN(C)C)c4)c(F)nc3N)cc12` [Example I-236, 6-(3-amino-6-(5-((dimethylamino)methyl)-6-morpholinopyridin-3-yl)-5-fluoropyrazin-2-yl)-4-methylisoquinolin-1(2H)-one], for which the IC50 was 11 to 100 nM.

`Cc1c[nH]c(=O)c2ccc(-c3nc(-c4ccc(N5CCOCC5)c(CN5CCCC5)c4)c(F)nc3N)cc12` [Example I-203, 6-(3-amino-5-fluoro-6-(4-morpholino-3-(pyrrolidin-1-ylmethyl)phenyl)pyrazin-2-yl)-4-methylisoquinolin-1(2H)-one]: the IC50 lay within 0.1 to 10 nM.

`Cc1[nH]c(=O)c2c(F)cc(-c3nc(-c4ccc(N5CCOCC5)c(CN(C)C)c4)c(F)nc3N)cc2c1Cl` [Example I-109, 6-(3-amino-6-(3-((dimethylamino)methyl)-4-morpholinophenyl)-5-fluoropyrazin-2-yl)-4-chloro-8-fluoro-3-methylisoquinolin-1(2H)-one]: the IC50 was 0.1 to 10 nM.

Turning to `CN(C)Cc1cc(-c2nc(-c3ccc4c(=O)[nH]cc(F)c4c3)c(N)nc2F)ccc1N1CCOCC1` [Example I-89, 6-(3-amino-6-(3-((dimethylamino)methyl)-4-morpholinophenyl)-5-fluoropyrazin-2-yl)-4-fluoroisoquinolin-1(2H)-one], the IC50 lay within 0.1 to 10 nM.

Take `Cc1[nH]c(=O)c2ccc(-c3nc(-c4ccc(N5CCN(CC6CC6)CC5)cc4)c(F)nc3N)cc2c1F` [Example I-106, 6-(3-amino-6-(4-(4-(cyclopropylmethyl)piperazin-1-yl)phenyl)-5-fluoropyrazin-2-yl)-4-fluoro-3-methylisoquinolin-1(2H)-one]: the IC50 was in the range of 0.1 to 10 nM.

For the molecule `COC1CN(Cc2cc(-c3nc(-c4cc5c(cc4F)C(=O)NCC5)c(N)nc3F)ccc2C2CCOCC2)C1` [Example I-190, 6-(3-amino-5-fluoro-6-(3-((3-methoxyazetidin-1-yl)methyl)-4-(tetrahydro-2H-pyran-4-yl)phenyl)pyrazin-2-yl)-7-fluoro-3,4-dihydroisoquinolin-1(2H)-one], the IC50 lay within 0.1 to 10 nM.

The values above are taken from US20240425479A1, “HALO-SUBSTITUTED AMINO AZA-HETEROARYL COMPOUNDS AS INHIBITORS OF THE HAEMATOPOIETIC PROGENITOR KINASE 1 (HPK1)” (priority 2021, published 2024).
